Data on 17 compounds can be found in patent US20260138961A1, “MODULATORS OF MITOCHONDRIAL DNA REPLICATION” (Pretzel Therapeutics, Inc., priority 2022, published 2026).

By AC50 is commonly meant the concentration at which the activity in the assay is half-maximal.

In the assay the target is T1, POLγA:A467T (Homo sapiens, UniProt P54098, A467T).
T1 sequence (P54098 1-1239 A467T): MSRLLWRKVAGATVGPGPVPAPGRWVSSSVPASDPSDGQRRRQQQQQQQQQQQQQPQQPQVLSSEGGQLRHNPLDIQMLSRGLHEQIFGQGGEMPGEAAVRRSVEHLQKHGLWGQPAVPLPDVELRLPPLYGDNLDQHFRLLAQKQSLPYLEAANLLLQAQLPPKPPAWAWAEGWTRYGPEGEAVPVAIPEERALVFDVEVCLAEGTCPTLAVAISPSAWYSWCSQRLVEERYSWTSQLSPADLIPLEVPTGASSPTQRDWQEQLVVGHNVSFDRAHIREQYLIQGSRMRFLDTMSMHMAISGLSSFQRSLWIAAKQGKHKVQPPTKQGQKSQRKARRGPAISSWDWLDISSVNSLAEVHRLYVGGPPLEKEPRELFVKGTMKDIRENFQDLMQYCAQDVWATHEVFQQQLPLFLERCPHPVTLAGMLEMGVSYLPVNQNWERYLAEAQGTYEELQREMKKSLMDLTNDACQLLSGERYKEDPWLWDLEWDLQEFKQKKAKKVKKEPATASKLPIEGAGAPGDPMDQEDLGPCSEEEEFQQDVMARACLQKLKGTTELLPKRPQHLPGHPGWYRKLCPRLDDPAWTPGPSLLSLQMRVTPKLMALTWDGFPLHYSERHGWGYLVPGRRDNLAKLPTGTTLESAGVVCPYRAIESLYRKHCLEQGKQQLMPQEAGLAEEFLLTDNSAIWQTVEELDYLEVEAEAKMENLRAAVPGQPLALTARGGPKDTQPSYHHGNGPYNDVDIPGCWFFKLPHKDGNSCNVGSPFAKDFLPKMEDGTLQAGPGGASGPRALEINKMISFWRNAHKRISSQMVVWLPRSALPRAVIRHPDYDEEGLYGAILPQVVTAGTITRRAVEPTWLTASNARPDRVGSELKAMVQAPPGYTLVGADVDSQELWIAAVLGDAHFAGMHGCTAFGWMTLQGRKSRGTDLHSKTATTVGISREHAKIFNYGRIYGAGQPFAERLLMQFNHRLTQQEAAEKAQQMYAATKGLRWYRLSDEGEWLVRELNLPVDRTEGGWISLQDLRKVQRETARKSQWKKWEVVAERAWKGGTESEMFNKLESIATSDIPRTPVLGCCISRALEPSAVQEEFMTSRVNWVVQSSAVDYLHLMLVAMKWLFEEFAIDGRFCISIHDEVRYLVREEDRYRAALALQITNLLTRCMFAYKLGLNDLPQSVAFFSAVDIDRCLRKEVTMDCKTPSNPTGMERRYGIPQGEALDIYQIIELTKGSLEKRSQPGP
T1 sequence (Q9UHN1 1-485 partner): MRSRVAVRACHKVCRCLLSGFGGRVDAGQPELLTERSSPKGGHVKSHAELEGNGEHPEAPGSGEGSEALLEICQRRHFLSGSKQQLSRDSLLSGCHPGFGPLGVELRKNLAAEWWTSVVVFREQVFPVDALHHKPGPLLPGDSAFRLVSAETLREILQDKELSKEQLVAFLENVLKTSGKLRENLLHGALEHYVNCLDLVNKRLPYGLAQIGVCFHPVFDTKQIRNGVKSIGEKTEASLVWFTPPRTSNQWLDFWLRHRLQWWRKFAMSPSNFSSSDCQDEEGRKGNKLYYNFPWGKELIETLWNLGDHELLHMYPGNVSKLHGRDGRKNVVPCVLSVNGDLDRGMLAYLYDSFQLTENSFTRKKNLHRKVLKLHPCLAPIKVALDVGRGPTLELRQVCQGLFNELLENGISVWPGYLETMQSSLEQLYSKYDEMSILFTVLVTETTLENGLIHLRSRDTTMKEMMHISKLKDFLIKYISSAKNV
Put plainly: DNA polymerization assay, POLγA:A467T mutant. The format is biochemical. To be noted: stimulation of polymerase activity, primed M13mp18 ssDNA, 37° C. 2 hours; read-out: A467T AC50. How it is done:
DNA Polymerization Assay to Monitor Effects on Human Wildtype POLγ and Four Disease-Causing Mutant Variants of Human POLγ.
The ability of small molecules to stimulate the polymerase activity of POLγ was analyzed in a quantitative fluorescence SYBR Green I assay with fluorescence intensity (FI) readout.
In the presence of dNTPs, wild type human POLγ and mutant derivatives thereof were incubated with single-stranded, circular M13mp18 ssDNA hybridized to a short DNA oligonucleotide that functions as a primer for initiation of DNA synthesis. POLγ and mutant derivatives thereof will extend the primer and use the M13mp18 molecule as a template to synthesize long stretches of double-stranded DNA. SYBR Green I, which is a double-stranded DNA-binding dye, was used to quantify formation of double-stranded DNA in the reaction. When bound to double-stranded DNA, SYBR Green I fluorescence increases by up to 100-fold.
The assay was performed in the 384-well plate format. Upon addition of compounds, changes in double-stranded DNA synthesis activity can be monitored by following effects on fluorescent intensity.
The reactions also contained the accessory POLγB subunit, and the human mitochondrial single-stranded DNA binding protein (mtSSB).
The DNA template mixture used in the assay contained 0.5 nM primed M13 mp18 ssDNA, 400 nM mtSSB, 0.1 mM Tris-HCl (pH 8.0), 0.1 mM dNTP, 10 mM MgCl2, 0.1 mg/mL BSA, 1 mM TCEP solution, and 0.02% Triton X-100. The DNA template mixture for the wild type protein contained either 100 μM dNTP, 1 μM dNTP, or 0.1 μM dNTP, designated in Table 2 as 100 μM, 1 μM, and 0.1 μM, respectfully.
Microplates with compounds (0.1 μL in each well) to be tested in the assay were prepared from 10 mM compound stocks in 100% DMSO, and equal amounts of DMSO without any compound were added to positive and negative control wells.
The protein mixture was dispensed (5 μL into each well) into compound plates and incubated at 37° C. for 15 minutes. After incubation, 5 μL of the DNA template mixture was dispensed into each well. The plates were then incubated at 37° C. for 2 hours.
During incubation, a combined stop buffer and detection reagent solution was prepared. The buffer contained 25 mM EDTA (pH 8.0), 0.02% Triton X-100, and SYBR Green I [Invitrogen] diluted 10,000× (for fluorescent readout). EDTA will stop the enzymatic reaction by chelating magnesium ions.
As to `O=S(=O)(Nc1csc(-c2ccccc2)n1)c1ccccc1` [Example 147, N-(2-phenylthiazol-4-yl)benzenesulfonamide], the AC50 was above 100 µM.

Take `Cc1cc(S(=O)(=O)N[C@@H]2CCCN(C(=O)[C@H]3CCCN3C)C2)c(C)cc1Cl` [Example 100, 4-chloro-2,5-dimethyl-N-((R)-1-(methyl-D-prolyl)piperidin-3-yl)benzenesulfonamide]: the concentration at half-maximal activity (AC50) was above 100 µM.

As for `Cc1ccc(C)c(S(=O)(=O)Nc2cccc(C(=O)N3CCCCC3C#N)c2)c1` (centres unmarked) [Example 2, N-(3-(2-cyanopiperidine-1-carbonyl)phenyl)-2,5-dimethylbenzenesulfonamide], the AC50 is 60 µM.

Consider `Cc1cc(S(=O)(=O)Nc2cccc(-c3nccs3)c2)c(C)cc1Cl` [Example 16, 4-chloro-2,5-dimethyl-N-(3-(thiazol-2-yl)phenyl)benzenesulfonamide], for which the AC50 was 5 µM.

For the compound `C[C@@H]1CCCN1C(=O)c1cccc(NS(=O)(=O)c2ccc(C(F)(F)F)cc2)c1` [Example 118, (R)-N-(3-(2-methylpyrrolidine-1-carbonyl)phenyl)-4-(trifluoromethyl)benzenesulfonamide], the AC50 was above 100 µM.

Turning to `Cc1cc(S(=O)(=O)Nc2nc(-c3ccccc3)ns2)c(C)cc1Cl` [Example 132, 4-chloro-2,5-dimethyl-N-(3-phenyl-1,2,4-thiadiazol-5-yl)benzenesulfonamide], the half-maximal activity concentration (AC50) is above 100 µM.

On to `Cc1cc(S(=O)(=O)Nc2cccc(C(=O)N(C)c3ccccn3)c2)c(C)cc1Cl` [Example 109, 3-((4-chloro-2,5-dimethylphenyl)sulfonamido)-N-methyl-N-(pyridin-2-yl)benzamide], for which the AC50 was above 100 µM.

As for `Cc1cc(S(=O)(=O)Nc2nc(-c3ccccc3)no2)c(C)cc1Cl` [Example 143, 4-chloro-2,5-dimethyl-N-(3-phenyl-1,2,4-oxadiazol-5-yl)benzenesulfonamide], the AC50 is above 100 µM.

Turning to `O=S(=O)(Nc1csc(-c2ccccc2)n1)c1cccc2nccnc12` [Example 128, N-(2-phenylthiazol-4-yl)quinoxaline-5-sulfonamide], the AC50 was above 100 µM.

Take `Cc1cc(S(=O)(=O)Nc2cccc(C(=O)NCc3ccccc3)c2)c(C)cc1Cl` [Example 11, N-benzyl-3-((4-chloro-2,5-dimethylphenyl)sulfonamido)benzamide]: the AC50 was determined as 49 µM.

Regarding `Cc1ccc(C)c(S(=O)(=O)Nc2cccc(C(=O)N3CCOCC3C#N)c2)c1` (centres unmarked) [Example 7, N-(3-(3-cyanomorpholine-4-carbonyl)phenyl)-2,5-dimethylbenzenesulfonamide], the AC50 was 37 µM.

In the case of `O=S(=O)(Nc1csc(-c2ccccc2)n1)c1ccccc1Cl` [Example 125, 2-chloro-N-(2-phenylthiazol-4-yl)benzenesulfonamide], the AC50 worked out at 8 µM.

As for `O=S(=O)(Nc1csc(-c2ccccc2)n1)c1cccc(C(F)(F)F)c1` [Example 151, N-(2-phenylthiazol-4-yl)-3-(trifluoromethyl)benzenesulfonamide], the AC50 is above 100 µM.

Consider `Cc1cc(S(=O)(=O)Nc2cccc(C(=O)N3CCC[C@@H]3C)c2)c(C)cc1Cl` [Example 133, (S)-4-chloro-2,5-dimethyl-N-(3-(2-methylpyrrolidine-1-carbonyl)phenyl)benzenesulfonamide], for which the AC50 was above 100 µM.

On to `Cc1nc2c(NS(=O)(=O)c3cc(C)c(Cl)cc3C)cccc2s1` [Example 99, 4-chloro-2,5-dimethyl-N-(2-methylbenzo[d]thiazol-4-yl)benzenesulfonamide], for which the AC50 is above 100 µM.

Consider `Cc1cc(S(=O)(=O)Nc2nsc(-c3ccccc3)n2)c(C)cc1Cl` [Example 131, 4-chloro-2,5-dimethyl-N-(5-phenyl-1,2,4-thiadiazol-3-yl)benzenesulfonamide], for which the AC50 was above 100 µM.

As for `Cc1cc(S(=O)(=O)N[C@H]2CCCN(C(=O)c3ccccc3)C2)c(C)cc1Cl` [Example 129, (S)-N-(1-benzoylpiperidin-3-yl)-4-chloro-2,5-dimethylbenzenesulfonamide], the AC50 was above 100 µM.
